Data from ChEMBL document CHEMBL3137381, “MMV Box Onchocerca lienalis screening set”.

Tests used:
Format in all cases: functional
Onchocerca lienalis [1] = assay: MMV: Percent motility assay at a compound concentration of 7.8e-7 M. Activity score legend: 3: Active, 2: Moderately active; 1: Inactive, 0: Toxic; settings: at 0.78 µM
Onchocerca lienalis [2] = assay: MMV: Percent motility assay at a compound concentration of 3.1e-6 M. Activity score legend: 3: Active, 2: Moderately active; 1: Inactive, 0: Toxic; settings: at 3.1 µM
Onchocerca lienalis [3] = assay: MMV: Percent motility assay at a compound concentration of 1.9e-7 M. Activity score legend: 3: Active, 2: Moderately active; 1: Inactive, 0: Toxic; settings: at 0.19 µM
Onchocerca lienalis [4] = assay: MMV: Percent motility assay at a compound concentration of 1.25e-5 M. Activity score legend: 3: Active, 2: Moderately active; 1: Inactive, 0: Toxic; settings: at 12.5 µM

Cc1cc(C)cc(Nc2cc(C)nc3nc(C(F)(F)F)nn23)c1
Motility (Onchocerca lienalis [1]): 100% | Motility (Onchocerca lienalis [2]): 100% | Motility (Onchocerca lienalis [3]): 100% | Motility (Onchocerca lienalis [4]): 100%

O=C(NCC(c1ccsc1)N1CCCCCC1)c1ccc(C(F)(F)F)cc1 (centres undefined)
Motility (Onchocerca lienalis [1]): 100% | Motility (Onchocerca lienalis [2]): 100% | Motility (Onchocerca lienalis [3]): 100% | Motility (Onchocerca lienalis [4]): 100%

Cc1ccc(-c2cc3c(SCC(=O)Nc4cc(C(F)(F)F)ccc4Cl)nccn3n2)cc1
Motility (Onchocerca lienalis [1]): 100% | Motility (Onchocerca lienalis [2]): 100% | Motility (Onchocerca lienalis [3]): 100% | Motility (Onchocerca lienalis [4]): 100%

CCCCCC(=O)N1c2ccccc2N=C2CC(c3ccc(OC)c(OC)c3)CC(O)=C2C1c1ccc(C(F)(F)F)cc1 (centres undefined)
Motility (Onchocerca lienalis [1]): 100% | Motility (Onchocerca lienalis [2]): 100% | Motility (Onchocerca lienalis [3]): 100% | Motility (Onchocerca lienalis [4]): 100%

Cc1cc(NCCN2CCCCC2)c2ccc3ccccc3c2n1
Motility (Onchocerca lienalis [1]): 100% | Motility (Onchocerca lienalis [2]): 100% | Motility (Onchocerca lienalis [3]): 100% | Motility (Onchocerca lienalis [4]): 100%

Cc1ccc(N2C(=O)C3C(C2=O)C2(c4ccccc4)C(=O)C3(c3ccccc3)C(c3ccccc3)=C2c2ccccc2)cc1 (centres undefined)
Motility (Onchocerca lienalis [1]): 100% | Motility (Onchocerca lienalis [2]): 100% | Motility (Onchocerca lienalis [3]): 100% | Motility (Onchocerca lienalis [4]): 100%

CCc1c(C)c(=N)c2ccccc2n1C.I
Motility (Onchocerca lienalis [1]): 100% | Motility (Onchocerca lienalis [2]): 100% | Motility (Onchocerca lienalis [3]): 100% | Motility (Onchocerca lienalis [4]): 100%

CCOC(=O)c1cn(CC)c2cc(N(C)CCc3ccc(OC)c(OC)c3)c(F)cc2c1=O
Motility (Onchocerca lienalis [1]): 100% | Motility (Onchocerca lienalis [2]): 100% | Motility (Onchocerca lienalis [3]): 100% | Motility (Onchocerca lienalis [4]): 100%

CCOC(=O)C1=C(c2ccccc2)N=c2sc(=Cc3cc(C)n(-c4ccc(F)cc4)c3C)c(=O)n2C1c1cccc(OC)c1OC (centres undefined)
Motility (Onchocerca lienalis [1]): 100% | Motility (Onchocerca lienalis [2]): 100% | Motility (Onchocerca lienalis [3]): 100% | Motility (Onchocerca lienalis [4]): 100%

CCC1(C)CC(CCNCc2ccccc2O)(c2ccc(C)cc2)CCO1 (centres undefined)
Motility (Onchocerca lienalis [1]): 100% | Motility (Onchocerca lienalis [2]): 100% | Motility (Onchocerca lienalis [3]): 100% | Motility (Onchocerca lienalis [4]): 100%

Cc1cc(Nc2ccc(C)c(Cl)c2)n2nc(C(F)(F)F)nc2n1
Motility (Onchocerca lienalis [1]): 100% | Motility (Onchocerca lienalis [2]): 100% | Motility (Onchocerca lienalis [3]): 100% | Motility (Onchocerca lienalis [4]): 100%

Fc1ccc2[nH]c3c(NCCCN4CCOCC4)ncnc3c2c1
Motility (Onchocerca lienalis [1]): 100% | Motility (Onchocerca lienalis [2]): 100% | Motility (Onchocerca lienalis [3]): 100% | Motility (Onchocerca lienalis [4]): 100%

Cc1cccc(Nc2nc(N)c3ccccc3n2)c1.Cl
Motility (Onchocerca lienalis [1]): 100% | Motility (Onchocerca lienalis [2]): 100% | Motility (Onchocerca lienalis [3]): 100% | Motility (Onchocerca lienalis [4]): 100%

CCn1c(CN2CCN(Cc3ccccc3)CC2)nc2cc(NC(=O)c3cccs3)ccc21
Motility (Onchocerca lienalis [1]): 100% | Motility (Onchocerca lienalis [2]): 100% | Motility (Onchocerca lienalis [3]): 100% | Motility (Onchocerca lienalis [4]): 100%

COc1cc(OC)c(N(C)C(=O)c2cc3c(s2)-c2ccccc2S(=O)(=O)C3)cc1Cl
Motility (Onchocerca lienalis [1]): 100% | Motility (Onchocerca lienalis [2]): 100% | Motility (Onchocerca lienalis [3]): 100% | Motility (Onchocerca lienalis [4]): 100%

COc1ccccc1CNC(=O)CCn1c(=O)[nH]c2ccsc2c1=O
Motility (Onchocerca lienalis [1]): 100% | Motility (Onchocerca lienalis [2]): 100% | Motility (Onchocerca lienalis [3]): 100% | Motility (Onchocerca lienalis [4]): 100%

COc1ccc(Br)cc1C1Nc2ccc3ccccc3c2C2=C1C(=O)CC(c1ccccc1)C2 (centres undefined)
Motility (Onchocerca lienalis [1]): 100% | Motility (Onchocerca lienalis [2]): 100% | Motility (Onchocerca lienalis [3]): 100% | Motility (Onchocerca lienalis [4]): 66.66%

Cc1cc(C=C2SC(=Nc3ccccc3)N(C3CCCC3)C2=O)c(C)n1-c1ccc(Cl)cc1
Motility (Onchocerca lienalis [1]): 100% | Motility (Onchocerca lienalis [2]): 100% | Motility (Onchocerca lienalis [3]): 100% | Motility (Onchocerca lienalis [4]): 100%

CCc1ccc(Nc2cc(C)c3ccc(O)cc3n2)cc1.Cl
Motility (Onchocerca lienalis [1]): 100% | Motility (Onchocerca lienalis [2]): 100% | Motility (Onchocerca lienalis [3]): 100% | Motility (Onchocerca lienalis [4]): 66.66%

CCCc1c(CC)c(=N)c2ccccc2n1C
Motility (Onchocerca lienalis [1]): 100% | Motility (Onchocerca lienalis [2]): 100% | Motility (Onchocerca lienalis [3]): 100% | Motility (Onchocerca lienalis [4]): 100%

CCOC(=O)c1cnc2c(C)cc(C)cc2c1Nc1ccc(OC)c(OC)c1
Motility (Onchocerca lienalis [1]): 100% | Motility (Onchocerca lienalis [2]): 100% | Motility (Onchocerca lienalis [3]): 100% | Motility (Onchocerca lienalis [4]): 100%
